The values below come from patent publication US7462713B2, “Tricyclic compounds protein kinase inhibitors for enhancing the efficacy of anti-neoplastic agents and radiation therapy” (Agouron Pharmaceuticals, Inc., priority 2003, dated 2008).

As usually defined, the Ki is the equilibrium dissociation constant of an inhibitor or competing ligand from its target. High values mean weaker binding, low ones tighter binding.

The target of this assay is T1, kinase domain of human CHK-1 (KH289) (Homo sapiens, UniProt O14757).
T1 construct: kinase domain of human CHK-1 (KH289), amino acid residues 1-289; made in house; host or cells: baculovirus (Bac-to-Bac); Hi-S insect cells for protein production, Sf9/Sf21 for virus amplification
T1 sequence (O14757 1-289): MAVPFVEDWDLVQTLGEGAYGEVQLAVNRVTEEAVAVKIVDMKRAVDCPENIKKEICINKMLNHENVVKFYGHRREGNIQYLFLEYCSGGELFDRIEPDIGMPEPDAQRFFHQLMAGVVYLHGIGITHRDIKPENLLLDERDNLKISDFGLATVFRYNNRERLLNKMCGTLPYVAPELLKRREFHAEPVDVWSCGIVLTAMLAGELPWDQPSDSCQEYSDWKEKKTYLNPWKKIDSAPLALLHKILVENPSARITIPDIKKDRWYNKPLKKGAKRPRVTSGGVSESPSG
Kind of assay: CHK-1 coupled spectrophotometric enzyme assay (Syntide-2, PK/LDH, NADH oxidation). The class given is biochemical. As to conditions: 10 nM KH289, 0.15 mM ATP, 0.125 mM Syntide-2, pH 7.5. From the text: As previously detailed in European Patent Application No. 1 096 014 A2 (filed Oct. 31, 2000), the C-terminally His-tagged kinase domain of human CHK-1 (KH289), amino acid residues 1-289, can be expressed using the baculovirus/insect cell system. […] The Bac-to-Bac system (Life Technologies) can be used to generate recombinant baculovirus for the expression of KH289 as per instructions. Recombinant viruses can be confirmed by PCR for the presence of CHK-1 cDNA insertion. […] Sf9 insect cells (Invitrogen, Carlsbad, Calif., USA) can be used for initial amplification of recombinant virus stock. High titer stocks of recombinant viruses can be generated by 2 to 3 rounds of amplification using Sf21 insect cells. Hi-S insect cells (Invitrogen, Carlsbad, Calif., USA) can be used for protein production. Both Sf9 and Hi-S cell lines can be adapted to grow in insect medium containing 1% Fetal Bovine Serum (Life Technologies, Grand Island, N.Y., USA). The viral stock was stored at […] and used for large-scale protein production within 2 months to avoid viral instability. For protein production, infected Hi-S cells can be harvested by centrifugation and stored at −80° C. From these cells, 6X-His tagged KH289 (identified by SDS-PAGE) can be obtained after purification and can be flash-frozen in liquid N2 and stored at −80° C.
As previously detailed in European Patent Application No. 1 096 014 A2 (filed Oct. 31, 2000), the enzymatic activity of a kinase can be measured by its ability to catalyze the transfer of a phosphate residue from a nucleoside triphosphate to an amino acid side chain in a selected protein target. The conversion of ATP to ADP generally accompanies the catalytic reaction. Herein, a synthetic substrate peptide, Syntide-2, having amino acid sequence […] can be utilized. The production of ADP from ATP that accompanies phosphoryl transfer to the substrate can be coupled to oxidation of NADH using phosphoenolpyruvate (PEP) through the actions of pyruvate kinase (PK) and lactic dehydrogenase (LDH). The oxidation of NADH can be monitored by following the decrease of absorbance at 340 nm (e340=6.22 cm-1 mM-1) using a HP8452 spectrophotometer. Typical reaction solutions contained: 4 mM PEP, 0.15 mM NADH, 28 units of LDH/mL, 16 units of PK/mL, 3 mM DTT, 0.125 mM Syntide-2, 0.15 mM ATP and 25 mM MgCl2 in 50 mM TRIS pH 7.5; 400 mM NaCl. Assays can be initiated with 10 nM of kinase domain of CHK-1, KH289. Ki values can be determined by measuring initial enzyme activity in the presence of varying concentrations of inhibitors. The data can be analyzed using Enzyme Kinetic and Kaleidagraph software.

Structures can show the parent of a compound that is named as a salt.

`Cn1cc(-c2[nH]c3cc(NC(=O)[C@H](N)c4ccc(F)cc4)cc4c3c2C=NNC4=O)cn1` [Example 273, (2R)-2-Amino-2-(4-fluoro-phenyl)-N-[2-(1-methyl-1H-pyrazol-4-yl)-6-oxo-5,6-dihydro-1H-[1,2]diazepino[4,5,6-cd]indol-8-yl]-acetamide (hydrochloric salt)] displayed an inhibition constant Ki of 0.46 nM.
